In patent US20090142330A1, “Use of inactive-plasmin to treat chronic inflammatory disease and tumors” (The Government of the United States of America as …, priority 2007, published 2009):

Tested on: MMP-1 mRNA in monocytes
Assay: MMP-1 mRNA in monocytes, semiquantitative RT-PCR
Format: cell-based, human
Details: FIG. 2C
Experimental: Plasmin activity assay. Plasmin activity was determined with the SPECTROZYME PL kit (American Diagnostica Inc., Stamford, Conn.) which utilizes the chromogenic substrate H-D-norleucyl-hexahydrotyrosol-lysine-para-nitroanilide diacetate. For detection of cell-associated plasmin activity, monocytes were cultured at 1×10^6/well in Hanks Balanced Solution containing calcium and magnesium (Hyclone, Logan, Utah) with the plasmin substrate. Kinetic absorbance readings were measured at 405 nm. RT-PCR. Total cellular RNA was extracted with the RNeasy Mini Kit (QIAGEN® Inc., Valencia, Calif.) 8 hours after stimulation of monocytes with LPS. Transcript levels of MMP-1 were determined using semiquantitative reverse transcriptase-polymerase chain reaction (RT-PCR) with GADPH as an internal control. […] The amplified DNA was separated by 1.7% agarose gel electrophoresis, stained with SYTO 60 red fluorescent nucleic acid stain (Molecular Probes®, Eugene, Oreg.), and the intensity of the stained bands was analyzed with an infrared imaging system. […] FITC-conjugated BSA, plasmin (2.5 μg in 10 μl) or anti-human antibodies (1-2.5 μg/10 μl) then were added, respectively, incubated for 30 min and washed and analyzed by the FACSCalibur system (Becton Dickinson Biosciences, Franklin Lakes, N.J.). […] Flow cytometry results were analyzed by CELLQuest software (Becton Dickinson Biosciences, Franklin Lakes, N.J.). […]

plasmin
MMP-1 mRNA level (LPS-stimulated monocytes, 8 hours): dose-dependent increase | induction of MMP-1 mRNA (control (unstimulated) monocytes): did not induce MMP-1
